Results from US7569570B2, “Thienopyrimidines, process for preparing the same and use thereof” (Takeda Pharmaceutical Company Limited, priority 2002, dated 2009).
Structures can show the parent of a compound that is named as a salt.

Assays:
Rat GnRH Receptor = biological target: T1, Rat GnRH Receptor (Rattus norvegicus, UniProt P30969); test: 125I-leuprorelin binding inhibition, rat pituitary anterior lobe membrane fraction; conditions: 4° C. for 90 minutes, Hill plot
T1 construct: Anterior lobes of the pituitary glands were isolated from forty Wistar rats; from tissue; host or cells: rat (Wistar, male, 8 weeks) anterior pituitary membrane fraction
T1 sequence (P30969 1-327): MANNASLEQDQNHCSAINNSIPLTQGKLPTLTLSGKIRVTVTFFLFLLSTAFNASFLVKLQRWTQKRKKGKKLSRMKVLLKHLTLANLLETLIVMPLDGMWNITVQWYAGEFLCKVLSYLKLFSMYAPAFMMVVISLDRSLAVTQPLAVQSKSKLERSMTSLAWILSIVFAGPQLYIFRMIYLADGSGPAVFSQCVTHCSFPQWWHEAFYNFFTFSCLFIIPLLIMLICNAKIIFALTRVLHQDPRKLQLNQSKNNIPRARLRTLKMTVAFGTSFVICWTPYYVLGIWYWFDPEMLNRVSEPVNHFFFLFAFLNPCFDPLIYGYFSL
Experimental: (§1) (1) Preparation of ^125I-Leuprorelin
(§2) To a tube containing 10 μl of a 3×10^−4 M aqueous solution of leuprorelin and 10 μl of 0.01 mg/ml lactoperoxidase, 10 μl (37 MBq) of a solution of Na^125I was added. After stirring, 10 μl of 0.001% H2O2 was added, and a reaction was carried out at room temperature for 20 minutes. By adding 700 μl of a 0.05% TFA (trifluoroacetic acid) solution, the reaction was stopped, and the solution was purified by reversed-phase HPLC. The HPLC conditions are shown below. ^125I-leuprorelin was eluted at a retention time of 26 to 27 minutes.
(2) Preparation of a Pituitary Anterior Lobe Membrane […]
(§3) When the rat pituitary anterior lobe membrane fraction was used, the reaction was conducted at 4° C. for 90 minutes. […] After the filtration, the radioactivity of ^125I-leuprorelin remaining on the filter paper was measured with a γ-counter.
(§4) (TB−SB)/(TB−NSB)×100 (SB: radioactivity when the compound is added, TB: maximum binding radioactivity, NSB: non-specific binding radioactivity) was calculated to find the binding inhibition rate (%) of each test substance. […]

Human GnRH Receptor = biological target: T2, Human GnRH Receptor (Homo sapiens, UniProt P30968); test: 125I-leuprorelin binding inhibition, membrane fraction of human GnRH receptor-expressing CHO cells; conditions: 25° C. for 60 minutes, Hill plot
T2 construct: expressed in transfected cells; host or cells: CHO (Chinese hamster ovary) cells
T2 sequence (P30968 1-328): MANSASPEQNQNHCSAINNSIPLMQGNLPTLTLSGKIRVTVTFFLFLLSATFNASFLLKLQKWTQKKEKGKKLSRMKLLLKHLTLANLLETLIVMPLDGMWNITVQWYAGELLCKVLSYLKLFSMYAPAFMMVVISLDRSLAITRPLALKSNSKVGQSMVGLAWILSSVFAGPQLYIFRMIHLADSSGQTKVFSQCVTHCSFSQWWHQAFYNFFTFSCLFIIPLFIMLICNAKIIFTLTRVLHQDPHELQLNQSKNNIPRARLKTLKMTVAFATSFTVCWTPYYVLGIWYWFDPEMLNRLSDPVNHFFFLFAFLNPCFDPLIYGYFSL
Experimental: as §1, §2
(3) Preparation of a CHO (Chinese Hamster Ovarian) Cell Membrane Fraction Containing Human GnRH Receptor
Human GnRH receptor-expressing CHO cells (10^9 cells) were suspended in phosphate-buffered saline supplemented with 5 mM EDTA (PBS-EDTA) and centrifuged at 100×g for 5 minutes. […]
as §3, §4

SMILES | IC50 (Rat GnRH Receptor) [µM] | IC50 (Human GnRH Receptor) [µM] | melting point [°C]
CCNC(=O)Nc1ccc(-c2sc3c(c2CN(C)CCOC)c(=O)n(-c2ccccc2)c(=O)n3Cc2c(F)cccc2F)cc1 [Example 112, N-[4-(1-(2,6-difluorobenzyl)-5-{[(2-methoxyethyl)(methyl)amino]methyl}-2,4-dioxo-3-phenyl-1,2,3,4-tetrahydrothieno[2,3-d]pyrimidin-6-yl)phenyl]-N′-ethylurea 1 hydrochloride] | 0.2 | 0.0001 | –
CCNC(=O)Nc1ccc(-c2sc3c(c2CN(C)CCOC(C)C)c(=O)n(-c2ccccc2)c(=O)n3Cc2c(F)cccc2F)cc1 [Example 110, N-[4-(1-(2,6-difluorobenzyl)-[(2-(2-propoxy)ethyl(methyl)amino}methyl]-2,4-dioxo-3 phenyl-1,2,3,4-tetrahydrothieno[2,3-d]pyrimidin-6-yl)phenyl]-N′-ethylurea] | 0.2 | < 0.0001 | 224
